# Measured values as given in patent US20260217701A1, “SELECTIVE BET INHIBITORS AND USES THEREOF” (Tay Therapeutics Limited, priority 2022, published 2026).
# Values joined by “and” are separate entries in the source; they are usually repeats but may differ in a detail not shown here. Equal entries are not always repeated.
# Assay: CIA study: animal body weight
# Settings: for Average animal body weight / Average animal body weight percent change: CIA; for Animal body weight percent change (%): individual animals
smiles,measurement,setting,value
"Cn1cc(-c2ccccc2)c(-c2cn(C)c(=O)c3[nH]c(-c4cnn(C(F)(F)F)c4)cc23)cc1=O [Compound A, 6-methyl-4-(1-methyl-2-oxo-5-phenyl-1,2-dihydropyridin-4-yl)-2-(1-(trifluoromethyl)-1H-pyrazol-4-yl)-1,6-dihydro-7H-pyrrolo[2,3-c]pyridin-7-one]",Animal body weight,"CIA + Compound A 1 mg/kg, Day 8, 1 mg/kg",172 g and 157 g and 170 g and 161 g and 171 g and 165 g
same,Animal body weight,"CIA + Compound A 1 mg/kg, Day 9, 1 mg/kg",180 g and 156 g and 175 g and 162 g and 173 g and 170 g and 169 g
same,Animal body weight,"CIA + Compound A 1 mg/kg, Day 10, 1 mg/kg",178 g and 155 g and 166 g and 170 g and 176 g
same,Animal body weight,"CIA + Compound A 1 mg/kg, Day 11, 1 mg/kg",180 g and 157 g and 178 g and 162 g and 170 g and 175 g and 167 g
same,Animal body weight,"CIA + Compound A 1 mg/kg, Day 12, 1 mg/kg",182 g and 158 g and 176 g and 162 g and 174 g and 177 g and 165 g
same,Animal body weight,"CIA + Compound A 1 mg/kg, Day 13, 1 mg/kg",180 g and 158 g and 179 g and 160 g and 174 g and 172 g and 165 g
same,Animal body weight,"CIA + Compound A 1 mg/kg, Day 14, 1 mg/kg",178 g and 159 g and 179 g and 155 g and 175 g and 170 g and 168 g
same,Animal body weight,"CIA + Compound A 3 mg/kg, Day 8, 3 mg/kg",160 g and 174 g and 173 g and 169 g and 163 g and 165 g and 167 g and 157 g
same,Animal body weight,"CIA + Compound A 3 mg/kg, Day 9, 3 mg/kg",162 g and 171 g and 178 g and 169 g and 160 g and 163 g and 170 g
same,Animal body weight,"CIA + Compound A 3 mg/kg, Day 10, 3 mg/kg",162 g and 172 g and 177 g and 170 g and 168 g and 167 g
same,Animal body weight,"CIA + Compound A 3 mg/kg, Day 11, 3 mg/kg",160 g and 172 g and 178 g and 169 g and 165 g
same,Animal body weight,"CIA + Compound A 3 mg/kg, Day 12, 3 mg/kg",158 g and 176 g and 170 g and 167 g and 169 g and 172 g and 165 g
same,Animal body weight,"CIA + Compound A 3 mg/kg, Day 13, 3 mg/kg",162 g and 175 g and 166 g and 173 g and 157 g and 168 g and 171 g
same,Animal body weight,"CIA + Compound A 3 mg/kg, Day 14, 3 mg/kg",163 g and 177 g and 170 g and 175 g and 156 g and 167 g and 158 g
same,Animal body weight,"CIA + Compound A 10 mg/kg, Day 8, 10 mg/kg",162 g
same,Animal body weight,"CIA + Compound A 10 mg/kg, Day 9, 10 mg/kg",164 g
same,Animal body weight,"CIA + Compound A 10 mg/kg, Day 10, 10 mg/kg",165 g
same,Animal body weight,"CIA + Compound A 10 mg/kg, Day 11, 10 mg/kg",164 g
same,Animal body weight,"CIA + Compound A 10 mg/kg, Day 12, 10 mg/kg",163 g
same,Animal body weight,"CIA + Compound A 10 mg/kg, Day 13, 10 mg/kg",163 g
same,Animal body weight,"CIA + Compound A 10 mg/kg, Day 14, 10 mg/kg",164 g
same,Average animal body weight,"Day 0, 1 mg/kg",163
same,Average animal body weight percent change,"Day 0, 1 mg/kg",0.00%
same,Average animal body weight,"Day 0, 3 mg/kg",166
same,Average animal body weight percent change,"Day 0, 3 mg/kg",0.00%
same,Average animal body weight,"Day 0, 10 mg/kg",162
same,Average animal body weight percent change,"Day 0, 10 mg/kg",0.00%
same,Average animal body weight,"Day 1, 1 mg/kg",166
same,Average animal body weight percent change,"Day 1, 1 mg/kg",1.55%
same,Average animal body weight,"Day 1, 3 mg/kg",165
same,Average animal body weight percent change,"Day 1, 3 mg/kg",−0.19%
same,Average animal body weight,"Day 1, 10 mg/kg",164
same,Average animal body weight percent change,"Day 1, 10 mg/kg",1.12%
same,Average animal body weight,"Day 2, 1 mg/kg",163
same,Average animal body weight percent change,"Day 2, 1 mg/kg",−0.07%
same,Average animal body weight,"Day 2, 3 mg/kg",165
same,Average animal body weight percent change,"Day 2, 3 mg/kg",−0.57%
same,Average animal body weight,"Day 2, 10 mg/kg",163
same,Average animal body weight percent change,"Day 2, 10 mg/kg",0.71%
same,Average animal body weight,"Day 3, 1 mg/kg",165
same,Average animal body weight percent change,"Day 3, 1 mg/kg",0.96%
same,Average animal body weight,"Day 3, 3 mg/kg",163
same,Average animal body weight percent change,"Day 3, 3 mg/kg",−1.45%
same,Average animal body weight,"Day 3, 10 mg/kg",163
same,Average animal body weight percent change,"Day 3, 10 mg/kg",0.63%
same,Average animal body weight,"Day 4, 1 mg/kg",165
same,Average animal body weight percent change,"Day 4, 1 mg/kg",1.26%
same,Average animal body weight,"Day 4, 3 mg/kg",165
same,Average animal body weight percent change,"Day 4, 3 mg/kg",−0.35%
same,Average animal body weight,"Day 4, 10 mg/kg",163
same,Average animal body weight percent change,"Day 4, 10 mg/kg",0.72%
same,Average animal body weight,"Day 5, 1 mg/kg",169
same,Average animal body weight percent change,"Day 5, 1 mg/kg",3.76%
same,Average animal body weight,"Day 5, 3 mg/kg",167
same,Average animal body weight percent change,"Day 5, 3 mg/kg",0.70%
same,Average animal body weight,"Day 5, 10 mg/kg",166
same,Average animal body weight percent change,"Day 5, 10 mg/kg",2.60%
same,Average animal body weight,"Day 6, 1 mg/kg",170
same,Average animal body weight percent change,"Day 6, 1 mg/kg",4.33%
same,Average animal body weight,"Day 6, 3 mg/kg",166
same,Average animal body weight percent change,"Day 6, 3 mg/kg",0.43%
same,Average animal body weight,"Day 6, 10 mg/kg",166
same,Average animal body weight percent change,"Day 6, 10 mg/kg",2.04%
same,Average animal body weight,"Day 7, 1 mg/kg",170
same,Average animal body weight percent change,"Day 7, 1 mg/kg",3.94%
same,Average animal body weight,"Day 7, 3 mg/kg",164
same,Average animal body weight percent change,"Day 7, 3 mg/kg",−0.93%
same,Average animal body weight,"Day 7, 10 mg/kg",164
same,Average animal body weight percent change,"Day 7, 10 mg/kg",0.89%
same,Average animal body weight,"Day 8, 1 mg/kg",167
same,Average animal body weight percent change,"Day 8, 1 mg/kg",2.26%
same,Average animal body weight,"Day 8, 3 mg/kg",166
same,Average animal body weight percent change,"Day 8, 3 mg/kg",0.36%
same,Average animal body weight,"Day 8, 10 mg/kg",162
same,Average animal body weight percent change,"Day 8, 10 mg/kg",−0.31%
same,Animal body weight percent change (%),"Day 8, Group 5 (CIA + Compound A 1 mg/kg), 1 mg/kg",4.24% and −4.27% and 4.94% and 5.92% and 1.78% and 2.40% and 1.23%
same,Animal body weight percent change (%),"Day 8, Group 6 (CIA + Compound A 3 mg/kg), 3 mg/kg",−4.76% and 1.75% and −1.14% and 1.20% and −2.40% and 1.23% and 6.37% and 0.64%
same,Average animal body weight,"Day 9, 1 mg/kg",169
same,Average animal body weight percent change,"Day 9, 1 mg/kg",3.79%
same,Average animal body weight,"Day 9, 3 mg/kg",167
same,Average animal body weight percent change,"Day 9, 3 mg/kg",0.75%
same,Average animal body weight,"Day 9, 10 mg/kg",163
same,Average animal body weight percent change,"Day 9, 10 mg/kg",0.36%
same,Animal body weight percent change (%),"Day 9, Group 5 (CIA + Compound A 1 mg/kg), 1 mg/kg",9.09% and −4.88% and 8.02% and 6.58% and 2.37% and 1.80% and 3.68%
same,Animal body weight percent change (%),"Day 9, Group 6 (CIA + Compound A 3 mg/kg), 3 mg/kg",−3.57% and 0.00% (2×) and 1.71% and 1.20% and 4.19% and 8.28% and 2.56%
